Our source for the IC50 values is patent US12145913B2, “Inhibition of Olig2 activity” (Curtana Pharmaceuticals, Inc., priority 2016, dated 2024).

This test concerns GBM8 human glioblastoma cells. Nature of the test: GBM8 viability assay (Cell Titer Glo). In kind it is cell-based. Conditions: 72 h, luminescence. As for the experimental part: Cell culture medium was prepared from a NSA proliferation kit (Neurocult) and NeuroCult supplements (Stemcell Tech Cat. #05751) and treated with 20 μL of 10 μg/mL rh EGF, 10 μL of 10 μg/mL rh bFGF and 10 μL of 0.2% Heparin. In this medium, human glioblastoma cells were cultured in ultra-low attachment tissue culture flasks until 1×10^6 cells ml was achieved (GBM4 and GBM8 are distinct neurosphere cell cultures derived from these human patient tissues). GBM4 and GBM8 cells were dissociated and 10 mL of media containing 4000 human glioblastoma cells per 90 μL were transferred to an ultra-low binding 96-well plate and incubated at 37° C. overnight. On the following day, 10 μL of a 1% DMSO solution of test compound in assay medium was added to wells containing the cell suspension and the mixture incubated at 37° C. for 3 days. At this time, the plate was removed from the incubator and allowed to reach room temperature. After about 30 minutes, 50 μL of Cell Titer Glo solution was added to each well and the plate shaken for 1 minute at low speed. After 10 minutes luminescence was recorded using a Tecan Safire2 reader.
Reduction in luminescence compared to DMSO only control wells was used to determine the percentage inhibition of cell growth. IC50s were calculated using the % inhibition of luminescence for serial dilutions of compounds fitted to a 4-parameter fit within the Prism (San Diego) curve fitting program. Tables 1 (compounds 3-188) and 2 (compounds 190-212) show the GBM4 IC50 and GBM8 IC50 for compounds described herein.
(Cellular ATP, detected with luciferase, serves as a proxy for viable cell number.)

The term IC50 denotes the concentration at which inhibition is half-maximal.

Under “Table 1, 3 days incubation”, `Cc1cc(NCCN(C)C)nc(NC(=O)Nc2ccc3ncccc3c2)n1` [Compound 106, 1-(4-((2-(dimethylamino)ethyl)amino)-6-methylpyrimidin-2-yl)-3-(quinolin-6-yl)urea] displayed an IC50 of 500 to 5000 nM.

For the setting “Table 1, 3 days incubation”, `Cc1cc(NCCCN(C)C)nc(NC(=O)Nc2ccc3ncccc3c2)n1` [Compound 105, 1-(4-((3-(dimethylamino)propyl)amino)-6-methylpyrimidin-2-yl)-3-(quinolin-6-yl)urea] registered a half-inhibitory concentration (IC50) of 500 to 5000 nM.

As for `Cc1cc(NCCCN(C)C)nc(NC(=O)Nc2ccc(OC(F)(F)F)c(C)c2)n1` [Compound 153, 1-(4-((3-(dimethylamino)propyl)amino)-6-methylpyrimidin-2-yl)-3-(3-methyl-4-(trifluoromethoxy)phenyl)urea], the IC50 (Table 1, 3 days incubation) is less than 500 nM.

Regarding `CONc1cc(C)nc(NC(=O)Nc2ccc3ccccc3c2)n1` [Compound 44, 1-(4-(methoxyamino)-6-methylpyrimidin-2-yl)-3-(naphthalen-2-yl)urea], the IC50 (Table 1, 3 days incubation) was less than 500 nM.

On to `CONc1cc(C)nc(NC(=O)Nc2ccc3cnccc3c2)n1` [Compound 61, 1-(isoquinolin-6-yl)-3-(4-(methoxyamino)-6-methylpyrimidin-2-yl)urea], for which the IC50 (Table 1, 3 days incubation) was less than 500 nM.

With `Cc1cc(NCCNS(C)(=O)=O)nc(NC(=O)Nc2ccc3ccncc3c2)n1` [Compound 120, N-(2-((2-(3-(isoquinolin-7-yl)ureido)-6-methylpyrimidin-4-yl)amino)ethyl)methanesulfonamide], the concentration for half-maximal inhibition (IC50) (Table 1, 3 days incubation) is less than 500 nM.

With `COCCNc1cc(C)nc(NC(=O)Nc2ccc3cnccc3c2)n1` [Compound 57], the half-maximal inhibitory concentration (IC50) (Table 1, 3 days incubation) is less than 500 nM.

As to `CC(=O)NCCCNc1cc(C)nc(NC(=O)Nc2ccc3ccccc3n2)n1` [Compound 100, N-(3-((6-methyl-2-(3-(quinolin-2-yl)ureido)pyrimidin-4-yl)amino)propyl)acetamide], for the setting “Table 1, 3 days incubation”, the IC50 fell in the range of 500 to 5000 nM.

Under “Table 1, 3 days incubation”, `O=C(Nc1ccc(Cl)c(Cl)c1)Nc1nccc(NO)n1` [Compound 158, 1-(3,4-dichlorophenyl)-3-(4-(hydroxyamino)pyrimidin-2-yl)urea] gave an IC50 of 500 to 5000 nM.

On to `O=C(Nc1ccc(OC(F)(F)F)cc1)Nc1nccc(Cl)n1` [Compound 162, 1-(4-Chloropyrimidin-2-yl)-3-(4-(trifluoromethoxy)phenyl)urea], for which, where the note is “Table 1, 3 days incubation”, the IC50 was less than 500 nM.

Compound `CC(=O)NCCNc1cc(C)nc(NC(=O)Nc2ccc3occc3c2)n1` [Compound 84, N-(2-((2-(3-(benzofuran-5-yl)ureido)-6-methylpyrimidin-4-yl)amino)ethyl)acetamide] came in with an IC50 (Table 1, 3 days incubation) of less than 500 nM.

Where the note is “Table 1, 3 days incubation”, `Cc1cc(NCCN(C)C)nc(NC(=O)Nc2ccc3occc3c2)n1` [Compound 81, 1-(benzofuran-5-yl)-3-(4-((2-(dimethylamino)ethyl)amino)-6-methylpyrimidin-2-yl)urea] displayed an IC50 of less than 500 nM.

In the case of `CC(=O)NCCCNc1cc(C)nc(NC(=O)Nc2ccc3ccncc3c2)n1` [Compound 118, N-(3-((2-(3-(isoquinolin-7-yl)ureido)-6-methylpyrimidin-4-yl)amino)propyl)acetamide], for the setting “Table 1, 3 days incubation”, the IC50 was less than 500 nM.

On to `CC(=O)NCCCNc1cc(C)nc(NC(=O)Nc2ccc(OC(C)C)cc2)n1` [Compound 142, N-(3-((2-(3-(4-isopropoxyphenyl)ureido)-6-methylpyrimidin-4-yl)amino)propyl)acetamide], for which the IC50 (Table 1, 3 days incubation) is less than 500 nM.

For the setting “Table 2, 3 days incubation”, `CNCCCNc1cc(C2CC2)nc(NC(=O)Nc2ccc(Cl)c(Cl)c2)n1` [Compound 206, 1-(4-cyclopropyl-6-((3-(methylamino)propyl)amino)pyrimidin-2-yl)-3-(3,4-dichlorophenyl)urea] came in with an IC50 of 5000 to 30000 nM.

For the setting “Table 1, 3 days incubation”, `Cc1cc(NCCCNS(C)(=O)=O)nc(NC(=O)Nc2ccc3ccccc3c2)n1` [Compound 37, N-(3-((6-methyl-2-(3-(naphthalen-2-yl)ureido)pyrimidin-4-yl)amino)propyl)methanesulfonamide] returned an IC50 of less than 500 nM.

`CN(C)CCCNc1ccnc(NC(=O)Nc2ccc3ccccc3c2)n1` [Compound 160, 1-(4-((3-(dimethylamino)propyl)amino)pyrimidin-2-yl)-3-(naphthalen-2-yl)urea] came in with a 50% inhibitory concentration (IC50) (Table 1, 3 days incubation) of less than 500 nM.

For the compound `Cc1cc(NCCN)nc(NC(=O)Nc2ccc3ccccc3n2)n1` [Compound 98, 1-(4-((2-aminoethyl)amino)-6-methylpyrimidin-2-yl)-3-(quinolin-2-yl)urea], the IC50 (Table 1, 3 days incubation) is 500 to 5000 nM.

For `CC(=O)NCCCNc1cc(C)nc(NC(=O)Nc2ccc3occc3c2)n1` [Compound 85, N-(3-((2-(3-(benzofuran-5-yl)ureido)-6-methylpyrimidin-4-yl)amino)propyl)acetamide], for the setting “Table 1, 3 days incubation”, the IC50 is less than 500 nM.

For `Cc1cc(NCCNS(C)(=O)=O)nc(NC(=O)Nc2ccc(Cl)c(Cl)c2)n1` [Compound 123, N-(2-((2-(3-(3,4-dichlorophenyl)ureido)-6-methylpyrimidin-4-yl)amino)ethyl)methanesulfonamide], the concentration for half-maximal inhibition (IC50) (Table 1, 3 days incubation) was less than 500 nM.

Compound `Cc1cc(NCCNS(C)(=O)=O)nc(NC(=O)Nc2ccc3ccccc3n2)n1` [Compound 102, N-(2-((6-methyl-2-(3-(quinolin-2-yl)ureido)pyrimidin-4-yl)amino)ethyl)methanesulfonamide] had an IC50 (Table 1, 3 days incubation) of 500 to 5000 nM.

Turning to `CN(C)CCCNc1ccnc(NC(=O)Nc2ccc(Cl)c(Cl)c2)n1` [Compound 157, 1-(3,4-dichlorophenyl)-3-(4-((3-(dimethylamino)propyl)amino)pyrimidin-2-yl)urea], under “Table 1, 3 days incubation”, the IC50 lay in the range of 500 to 5000 nM.

For the compound `Cc1cc(NCC(C)O)nc(NC(=O)Nc2ccc3ccccc3c2)n1` (stereo not drawn) [Compound 14], the IC50 (Table 1, 3 days incubation) was less than 500 nM.

Under “Table 1, 3 days incubation”, `Cc1cc(NCCCN(C)C)nc(NC(=O)Nc2ccc3occc3c2)n1` [Compound 80, 1-(benzofuran-5-yl)-3-(4-((3-(dimethylamino)propyl)amino)-6-methylpyrimidin-2-yl)urea] came in with a half-inhibitory concentration (IC50) of less than 500 nM.

The compound `Cc1cc(NCCCc2ccccn2)nc(NC(=O)Nc2ccc3ccccc3c2)n1` [Compound 16] came in with a half-inhibitory concentration (IC50) (Table 1, 3 days incubation) of less than 500 nM.

Turning to `Cc1cc(N(C)C)nc(NC(=O)Nc2ccc3ccccc3c2)n1` [Compound 21], the IC50 (Table 1, 3 days incubation) is 500 to 5000 nM.

As for `Cc1cc(NCCN)nc(NC(=O)Nc2ccc3cnccc3c2)n1` [Compound 52, 1-(4-((2-aminoethyl)amino)-6-methylpyrimidin-2-yl)-3-(isoquinolin-6-yl)urea], the half-inhibitory concentration (IC50) (Table 1, 3 days incubation) fell in the range of 500 to 5000 nM.

Where the note is “Table 1, 3 days incubation”, `Cc1cc(NCCCN)nc(NC(=O)Nc2ccc3ccccc3n2)n1` [Compound 99, 1-(4-((3-aminopropyl)amino)-6-methylpyrimidin-2-yl)-3-(quinolin-2-yl)urea] yielded an IC50 of 500 to 5000 nM.

In the case of `Cc1cc(NCCNS(C)(=O)=O)nc(NC(=O)Nc2ccc(OC(F)(F)F)c(Cl)c2)n1` [Compound 151, N-(2-((2-(3-(3-chloro-4-(trifluoromethoxy)phenyl)ureido)-6-methylpyrimidin-4-yl)amino)ethyl)methanesulfonamide], the IC50 (Table 1, 3 days incubation) is less than 500 nM.

Take `CCNc1cc(C)nc(NC(=O)Nc2ccc3cnccc3c2)n1` [Compound 54]: the 50% inhibitory concentration (IC50) (Table 1, 3 days incubation) was less than 500 nM.

`Cc1cc(NCCCNS(C)(=O)=O)nc(NC(=O)Nc2ccc3cnccc3c2)n1` [Compound 71, N-(3-((2-(3-(isoquinolin-6-yl)ureido)-6-methylpyrimidin-4-yl)amino)propyl)methanesulfonamide] had an IC50 (Table 1, 3 days incubation) of less than 500 nM.

`Cc1cc(NCCN(C)C)nc(NC(=O)Nc2ccc(OC(C)C)cc2)n1` [Compound 137, 1-(4-((2-(dimethylamino)ethyl)amino)-6-methylpyrimidin-2-yl)-3-(4-isopropoxyphenyl)urea] had an IC50 (Table 1, 3 days incubation) of less than 500 nM.

On to `Cc1cc(NCCN(C)C)nc(NC(=O)Nc2ccc3cnccc3c2)n1` [Compound 51, 1-(4-((2-(dimethylamino)ethyl)amino)-6-methylpyrimidin-2-yl)-3-(isoquinolin-6-yl)urea], for which the IC50 (Table 1, 3 days incubation) lay in the range of 500 to 5000 nM.

Compound `Cc1cc(NCCOCCN(C)C)nc(NC(=O)Nc2ccc3ccccc3c2)n1` [Compound 28, 1-(4-((2-(2-(dimethylamino)ethoxy)ethyl)amino)-6-methylpyrimidin-2-yl)-3-(naphthalen-2-yl)urea] showed an IC50 (Table 1, 3 days incubation) of less than 500 nM.

For `CN(C)CCCNc1cc(C2CC2)nc(NC(=O)Nc2ccc(Cl)c(Cl)c2)n1` [Compound 204, 1-(4-cyclopropyl-6-((3-(dimethylamino)propyl)amino)-pyrimidin-2-yl)-3-(3,4-dichlorophenyl)urea], the IC50 (Table 2, 3 days incubation) fell in the range of 500 to 5000 nM.

The compound `CNCCCNc1cc(C)nc(NC(=O)Nc2ccc3cnccc3c2)n1` [Compound 64, 1-(isoquinolin-6-yl)-3-(4-methyl-6-((3-(methylamino)propyl)amino)pyrimidin-2-yl)urea] gave an IC50 (Table 1, 3 days incubation) of less than 500 nM.

Compound `COC(=O)CCNc1cc(C)nc(NC(=O)Nc2ccc3ccccc3c2)n1` [Compound 25, methyl 3-((6-methyl-2-(3-(naphthalen-2-yl)ureido)pyrimidin-4-yl)amino)propanoate] gave an IC50 (Table 1, 3 days incubation) of less than 500 nM.

Turning to `Cc1cc(NCCCN)nc(NC(=O)Nc2ccc3ncccc3c2)n1` [Compound 108, 1-(4-((3-aminopropyl)amino)-6-methylpyrimidin-2-yl)-3-(quinolin-6-yl)urea], the IC50 (Table 1, 3 days incubation) was in the range of 500 to 5000 nM.

As to `CNC(=O)CCNc1cc(C)nc(NC(=O)Nc2ccc3ccccc3c2)n1` [Compound 43, N-methyl-3-((6-methyl-2-(3-(naphthalen-2-yl)ureido)pyrimidin-4-yl)amino)propanamide], under “Table 1, 3 days incubation”, the 50% inhibitory concentration (IC50) was less than 500 nM.
